Data from patent US20140221656A1, “CRYSTALLINE SOLVATES OF 6-(PIPERIDIN-4-YLOXY)-2H-ISOQUINOLIN-1-ONE HYDROCHLORIDE” (SANOFI, priority 2011, published 2014).
Entries after “also recorded” stand apart in the source; their conditions may differ. Where a name gives a salt, the structure may show the parent alone. Each block holds one compound with its values, some of them ahead of it.

Tests used:
Format in all cases: physicochemical
[1] = Thermogravimetric analysis (TGA)
Description: On heating the dihydrate in a dry environment, a significant weight loss starts already at slightly elevated temperature and ends at about 110° C.
In this temperature range, transformation to phase 3 was observed as determined by XRPD.
The thermogravimetric analyses were performed with a METTLER TGA851e (module TGA/SDTA851e/SF1100/042). 100 μl Al crucibles sealed with lid were used. The sample changer punches a pinhole into the lid immediately before the start of the measurement. The oven cell is purged with a nitrogen gas flow of about 50 mL/min. The measurements typically start with a hold time of about 25 min at 25° C., followed by heating of the sample with a rate of 10°/min. Temperature and weight loss were checked by a calcium oxalate hydrate reference sample.

[2] = Dynamic vapor sorption (DVS) water vapor sorption and desorption isotherms; settings: DVS 25° C.; for hygroscopicity / water content as a function of relative humidity: FIG. 13 and 14
Description: Moreover, the dihydrate may also be characterized by its DVS (dynamic vapor sorption) water vapor sorption and desorption isotherms measured at 25° C. as shown in FIG. 3. Before starting the sorption cycle the dihydrate probe is treated with dry nitrogen gas resulting in a transformation into phase 2 as shown by humidity resolved XRPD. […] In the sorption cycle the water content of the probe quickly increases when phase 2 is exposed to relative humidities between 1 and 20% and remains almost constant between 20 and 95%. In the desorption cycle the water content remains almost constant when the dihydrate is exposed to relative humidities between 95% and 20%. A weight loss starts below 20% relative humidity and becomes strong below 10%, especially below 5%. The change in mass at low relative humidity is completely reversible and when the humidity increases again, the rehydration proceeds rapidly with small samples. However, for bulk samples rehydration of over-dried samples can take considerably longer and rehydration may require several days. Almost identical water sorption and desorption isotherms are observed at 40° C.
With decreasing humidity the dihydrate converts back at low humidity (below about 10% r.h.) into phase 2 (cycle 1, desorption). Phase 2 then converts into the dihydrate with increasing humidity and along the same isotherm it converts back with decreasing humidity into polymorph 2 (cycle 2, see also FIG. 3)
Moisture sorption/desorption isotherms were recorded on a DVS-1 from Surface Measurement Systems. […] Typical total measurement times for both cycles are about 20-30 hours.

[3] = Maturation experiments (slurry conversion), relative stability of polymorphs and hydrate; settings: for relative thermodynamic stability among the phases: suspensions of phase mixtures in dry organic solvents, 0 to 40° C., hydrochloride
Description: By maturation experiments (slurry conversion) at the given temperature the relative stability of the polymorphs of compound (I) and the hydrate was investigated.
The following maturation experiment was performed by stirring the suspension under the specified conditions, starting from the dihydrate. The sample was investigated by XRPD in suspension, after vacuum filtration as well as after drying over night at 40° C. in vacuum (<50 mbar). The isolated material was also investigated by DSC and TGA.
(a) Maturation of 0.210 g dihydrate of compound (I) in 0.4 mL of water at 20° C. for 35 days. Similar, maturation of the dihydrate was done in water/methanol (vol/vol 1:1) and in water/ethanol (vol/vol 1:1).
The following maturation experiments were performed by stirring the suspension under the specified conditions and isolating the solid by vacuum filtration, starting from dihydrate of compound (I). The sample was investigated by XRPD in suspension, after vacuum filtration as well as after drying. The isolated material was also investigated by DSC and TGA.
(b) Maturation of 0.203 g of dihydrate of compound (I) in 1.2 mL of methanol at 20° C. for 35 days.
(c) Maturation was also done as in (b) by using ethanol, 1-propanol or 2-propanol.
(d) Maturation of […] of dihydrate of compound (I) in 2.0 mL of 2-butanol at 20° C. for 35 days.
The following maturation experiments of suspensions of phase mixtures of the dihydrate of compound (I) and phases consisting of polymorphs 1, 3 and 4 were performed at 0, 20 and 40° C. The product was isolated by vacuum filtration and analyzed after drying.
(e) Maturation of a mixture of 0.3 mg phase 1, 23.9 mg phase 3, 29.9 mg phase 4 and 27.9 mg of the dihydrate in 0.7 mL 2-propanol at 0° C. for 2 weeks.
(f) Maturation of a mixture of 0.3 mg phase 1, 27.2 mg phase 3, 18.1 mg phase 4 and 29.6 mg of the dihydrate in 2.0 mL 2-butanol at 0° C. for 2 weeks.
(g) Similar experiments as in e) and f) were done with corresponding mixtures of phase 1, phase 3, phase 4 and the dihydrate in 2-propanol and 2-butanol at 20° C. and at 40° C., respectively.

[4] = Storage under usual storage conditions (25° C./65% relative humidity)
Description: Moreover, the corresponding amorphous material is hygroscopic and the water content varies much stronger with the relative humidity compared to the dihydrate. This water uptake and variability in water content makes precise dosing during drug product manufacturing difficult. In contrast, the dihydrate has been proven to be stable for more than two years under usual storage conditions (no detectable decomposition at 25° C./65% relative humidity). Accordingly, the crystalline dihydrate is therefore the preferred solid form for drug product manufacturing.

[5] = Drying of the dihydrate, retention of crystal structure; settings: dried dihydrate
From the text: In a further embodiment of the hydrate the water content is 11.4% (w/w). in a further embodiment the hydrate contains 2.0 molecules water per molecule (I). Although the hydrate phase typically contains about 10-12.5% water it can also occur with lower water content. The crystal structure of the hydrate remains even if the dihydrate is dried and the remaining water content is down to about 3%. Water uptake is reversible if humidity in the environment is raised again. The water content in the isolated product depends on the drying conditions used during work up of the hydrate after crystallisation.

[6] = Temperature-resolved XRPD
Description: Based on these findings the dihydrate is stable below 90° C. and thus also at room temperature. Therefore, in comparison to the other described anhydrous polymorphs, the dihydrate is particularly suitable when a high stability is desired. It is the only one that can be stored at relative humidities between 20 and 95% in different environments below 90° C., which are usual storage conditions, without the risk of transformation into another described crystalline phase. Even if exposed to a very dry environment, a possible water loss is reversible and the missing water is gained back once the compound is back in an environment having usual humidity conditions. Therefore, the dihydrate is in particular suitable for the preparation of medicaments and pharmaceutical compositions with improved stability.
All X-ray powder diffraction was performed with Stoe Stadi-P transmission diffractometers using CuKα1 radiation (Lambda is 1.54060 Angström). For room temperature powder diffraction, linear position sensitive detectors were used; while for temperature-resolved XRPD image plate position sensitive detectors (IP-PSDs) were used. Unless stated otherwise, X-ray powder diffraction was performed at room temperature. […] The measured data were evaluated and plotted with the Software WinXPOW V2.12.

[7] = Humidity-controlled XRPD in a humidity chamber; settings: for time until transformation into the dihydrate at 95% relative humidity: held at 95% r.h., hydrochloride
Description: When humidity-controlled XRPD was performed at 25 and 40° C., widely identical results were obtained.
Exposure to elevated humidity causes transformation to the dihydrate as determined with humidity-controlled XRPD performed at 25° C. […] Phase 1 transformed into the dihydrate after about 15 min at 95%, which in turn changed to phase 2 after about 40 min at 2% r.h.
Exposure to elevated humidity causes transformation to the dihydrate as determined by humidity-controlled XRPD at 25° C. […] As a result phase 3 transformed into the hydrate after about 30 min at 95%, which in turn changed to phase 2 after about 30 min at 2% r.h.
Exposure to elevated humidity causes transformation to the dihydrate as determined by humidity-controlled XRPD. […] As a result phase 4 transformed into the dihydrate after about 15 min at 95%, which in turn changed to phase 2 after about 20 min at 2% r.h.
All X-ray powder diffraction was performed with Stoe Stadi-P transmission diffractometers using CuKα1 radiation (Lambda is 1.54060 Angström). For room temperature powder diffraction, linear position sensitive detectors were used; while for temperature-resolved XRPD image plate position sensitive detectors (IP-PSDs) were used. Unless stated otherwise, X-ray powder diffraction was performed at room temperature. Dry samples were investigated in a flat preparation whereas suspensions were investigated in quartz glass capillaries. The measured data were evaluated and plotted with the Software WinXPOW V2.12.

[8] = Stability of the solvate outside the mother liquor; settings: in the presence of humidity starts to transform to the hydrate
From the text: Thus, a further aspect of the present invention relates to the use of the methyl acetate solvate of compound (I) for the production of the hydrate, for example by subjecting it to conditions, such as an elevated temperature and/or humidity which facilitate the loss of methyl acetate and attracting water.

[9] = Storage at 20° C. and 75% relative humidity
Description: Also storage of phase 1 at 20° C. and 75% relative humidity caused complete conversion to the dihydrate within 3 weeks. The rate of conversion correlates with the relative humidity.
(§1) Also storage of phase 3 at 20° C. and 75% relative humidity caused complete conversion to the dihydrate within 3 weeks. The rate of conversion correlates with the relative humidity. When suspended in water, complete transformation into the dihydrate was observed almost immediately (<10 min).
Also storage of phase 4 at 20° C. and 75% relative humidity caused complete conversion to the dihydrate within 3 weeks. The rate of conversion apparently correlates with the relative humidity.

[10] = Suspension in water, transformation into the dihydrate
Description: as §1

SMILES: O=c1[nH]ccc2cc(OC3CCNCC3)ccc12 [1,4-dioxane solvate, 6-(Piperidin-4-yloxy)-2H-isoquinolin-1-one hydrochloride×0.5 1,4-dioxane solvate]
stability of the solvate (in words) ([1]; from TGA / temperature-resolved XRPD): relatively stable
TGA weight loss ([1]; mainly in a temperature range from 80 to 120° C.): 16.6%

SMILES: O=c1[nH]ccc2cc(OC3CCNCC3)ccc12 [amorphous material, 6-(Piperidin-4-yloxy)-2H-isoquinolin-1-one hydrochloride]
hygroscopicity / water content as a function of relative humidity ([2]; hydrochloride): hygroscopic

SMILES: O=c1[nH]ccc2cc(OC3CCNCC3)ccc12 [dihydrate, 6-(Piperidin-4-yloxy)-2H-isoquinolin-1-one hydrochloride dihydrate]
solid phase after maturation in 2-butanol ([3]; 2-butanol, 20° C., 35 days, after drying): Polymorph 4 was obtained
solid phase after maturation in alcohols ([3]; methanol, ethanol, 1-propanol or 2-propanol, 20° C., 35 days): polymorph 3 was obtained
solid phase after maturation in aqueous media ([3]; water, water/methanol 1:1, water/ethanol 1:1, 20° C., 35 days): remained as dihydrate
TGA weight loss (water) on heating ([1]; heating in a dry environment, ends at about 110° C.): 10.8 mass-%
time proven stable under usual storage conditions (no detectable decomposition) [4]: more than two
remaining water content down to which the hydrate crystal structure remains on drying [5]: about 3%
temperature below which the form is stable ([6]; based on temperature-resolved XRPD findings): below 90 °C
temperature at which transformation to phase 3 starts ([6]; heating, accompanied by loss of water): about 90 °C
relative humidity at which the hydrate reversibly transforms into phase 2 ([7]; humidity chamber XRPD, r.h. cycled between 2% and 95%): 2 % r.h.
time until the dihydrate changed to phase 2 at 2% r.h. ([7]; humidity-controlled XRPD, held at 2% r.h., hydrochloride dihydrate): about 30 min
hygroscopicity / water content as a function of relative humidity ([2]; hydrochloride dihydrate): maintains a quite constant water content
relative humidity below which the dihydrate converts into phase 2 ([2]; cycle 1, desorption): below 10 % r.h.
relative humidity below which weight loss starts ([2]; desorption cycle): below 20%

SMILES: O=c1[nH]ccc2cc(OC3CCNCC3)ccc12 [phase 1, 6-(Piperidin-4-yloxy)-2H-isoquinolin-1-one hydrochloride]
relative thermodynamic stability among the phases [3]: only a metastable polymorph
time to complete conversion to the dihydrate on storage [9]: ≤ 3 weeks
time until transformation into the dihydrate at 95% relative humidity ([7]; humidity-controlled XRPD): about 15 min

SMILES: O=c1[nH]ccc2cc(OC3CCNCC3)ccc12 [phase 3, 6-(Piperidin-4-yloxy)-2H-isoquinolin-1-one hydrochloride]
relative thermodynamic stability among the phases [3]: thermodynamically most stable anhydrous form; also recorded: most stable anhydrous phase
time to complete conversion to the dihydrate on storage [9]: ≤ 3 weeks
time to complete transformation into the dihydrate when suspended in water [10]: < 10 min
time until transformation into the dihydrate at 95% relative humidity ([7]; humidity-controlled XRPD): about 30 min
relative humidity above which phase changes into the dihydrate ([2]; cycle 1, sorption): above 80%

Other lines, results leading:

stability outside the mother liquor (in words) [8]: only moderately stable
SMILES: O=c1[nH]ccc2cc(OC3CCNCC3)ccc12 [methyl acetate solvate, 6-(Piperidin-4-yloxy)-2H-isoquinolin-1-one hydrochloride]

relative thermodynamic stability among the phases [3]: only a metastable one
time to complete conversion to the dihydrate on storage [9]: ≤ 3 weeks
time until transformation into the dihydrate at 95% relative humidity ([7]; humidity-controlled XRPD): about 15 min
SMILES: O=c1[nH]ccc2cc(OC3CCNCC3)ccc12 [phase 4, 6-(Piperidin-4-yloxy)-2H-isoquinolin-1-one hydrochloride]
